Here are results for 26 compounds from patent US6087346A, “Sigma receptor ligands and the use thereof” (Cambridge Neuroscience, Inc., priority 1996, dated 2000).

Where two headings read alike, the source gives them in different places.

For test [1], the target named is sigma-1 site (Cavia porcellus, UniProt Q60492). The settings on record: Hellewell and Bowen (1990); cited from earlier work.
The target of test [2] is T1, sigma-2 receptor (Cavia porcellus, UniProt H0V073).
T1 construct: of guinea pig brain membranes in a total volume of 0.5 ml; from tissue; host or cells: guinea pig brain membranes
T1 sequence (H0V073 1-176): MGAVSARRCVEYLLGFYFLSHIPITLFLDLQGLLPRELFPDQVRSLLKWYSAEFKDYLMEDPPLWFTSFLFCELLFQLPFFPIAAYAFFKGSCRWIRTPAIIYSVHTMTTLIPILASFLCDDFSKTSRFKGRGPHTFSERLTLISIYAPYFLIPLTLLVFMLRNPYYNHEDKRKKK
As to the kind of experiment: Sigma-2 binding assay ([^3 H]DTG in the presence of (+)pentazocine). Set-up: species or system guinea pig.
Excerpt: Protocols of the Sigma-1 and Sigma-2 binding assays employed are as follows:

Test [3] concerns the target sigma receptor (sigma-1 and sigma-2 sites). Description: Sigma receptor binding assay ([^3 H]DTG, guinea pig brain membrane homogenates). The settings on record: Example 3 table; tested by the [^3 H]DTG assay of Example 2. On the procedure:
Briefly, frozen whole guinea-pig brains (Biotrol, Indianapolis, Ind.) were homogenized in 10 volumes (w/v) of ice-cold 320 mM sucrose using a Brinkman® polytron. The homogenate was centrifuged at 1,000× g for 20 minutes at 4° C. The supernatant was centrifuged at 20,000× g for 20 minutes at 4° C. The resulting pellet was resuspended in 10 initial volumes of 50 mM Tris/HCI buffer at pH 7.4 and centrifuged at 20,000× g for 20 minutes at 4° C. The resulting pellet was resuspended in 5 initial volumes ice-cold 50 mM Tris/HCl (pH 7.4), and the final volume was adjusted to yield a protein concentration of 3 mg/mL.
The protein concentration in the 1-ml final incubation volume was 800 μg/ml, corresponding to 32 mg of brain tissue (original wet weight) and to a tissue concentration within the linear range for specific binding.
The volume of the assays may be changed, specifically halved, so long as the concentrations of the constituents remain the same. […] Incubations were terminated after 90 minutes at room temperature by addition of 4 ml of ice-cold 50 mM Tris/HCI (pH 7.4) and rapid filtration of the membrane suspension through Whatman® GF/B or Schieicher & Schuell #32 glass-fiber filters under vacuum, using a 48-well cell harvester (Brandel). The filters were washed 2 times with 4 mL of 50 mM Tris/HCI (pH 7.4). Each filter was suspended in 10 ml Cytoscint (ICI), and radioactivity was measured by liquid scintillation spectrometry at a counting efficiency of approximately 50%. IC50 values (indicated as Ki in Tables II below) were determined by non-linear regression analysis.

Test [4] addresses T2, sigma-1 receptor (Cavia porcellus, UniProt Q60492). The settings on record: pH 8.
Description: (§1) Non-specific binding was determined in the presence of 10 μM haloperiodol. For the standard equilibrium assay the mixtures were incubated for 4-5 hours at 37° C., quenched with 4 ml of ice cold incubation buffer and rapidly filtered over Whatman GF/B glass fiber filters, followed by three 4 ml rinses with additional ice cole incubation buffer.
Test [5] relates to opiate receptors. The note with it: cited from earlier work.
The test system of test [6] is PCP receptors. The settings on record: cited from earlier work.
In test [7] the test system is sigma sites. The settings on record: in words; cited from earlier work.
The subject of test [8] is DA sites. The settings on record: cited from earlier work.
The test system of test [9] is NMDA-induced toxicity and seizures. The note with it: in vivo; Pontecorvo et al.; cited from earlier work.
Test [10] has as its target T2, sigma-1 receptor. Description: biochemical.
Description: as §1
Test [11] deals with NMDA-type of glutamate receptors. The settings on record: Rao et al.; cited from earlier work.
Test [12] relates to gerbils. The settings on record: in vivo, Rao et al.; cited from earlier work.

T2 sequence (Q60492 whole entry): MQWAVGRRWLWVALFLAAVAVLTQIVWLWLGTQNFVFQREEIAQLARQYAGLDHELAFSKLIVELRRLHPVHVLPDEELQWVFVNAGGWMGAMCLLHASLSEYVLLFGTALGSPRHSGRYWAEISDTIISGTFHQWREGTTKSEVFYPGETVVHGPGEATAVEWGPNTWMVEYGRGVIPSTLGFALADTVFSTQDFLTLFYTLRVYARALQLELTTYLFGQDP
Sequence of sigma-1 site (Q60492 whole entry): as above

Consider `CC(C)=CCN1CCC2(C)c3cc(O)ccc3CC1C2C` (single isomer, unassigned; (+)) [(+)pentazocine], for which, in test [1], the “affinity for the sigma-1 site compared to the sigma-2 site” value is recorded as “nearly two orders of magnitude higher affinity for the sigma-1 site compared to the sigma-2 site”.
With `CN(CCCCCc1ccccc1)CCc1ccccc1`, the figures for the IC50 in test [2] (read-out: Sigma 2 IC50) and in test [3] were 4.98 nM and 1.3 nM, respectively. Further, affinity in test [4] was put at a Ki of 0.25 nM.
As to `C=CCN1CCC2(C)c3cc(O)ccc3CC1C2C` (stereo not shown) [NANM, N-allyl normetazocine], the “affinity at typical opiate receptors” value in [5] is reported as “low affinity”. For the same compound, in [6], the “affinity at PCP receptors” value was “significant affinity”.
Regarding `O=C(CCCN1CCC2(CC1)C(=O)NCN2c1ccccc1)c1ccc(F)cc1` [spiperone], the “affinity for sigma sites” value in [7] was “essentially no affinity for sigma sites”. Moreover, in test [8], the “affinity for DA sites” value is listed as “high affinity for DA sites”.
Take `OC(CCCN1CCN(c2ncc(F)cn2)CC1)c1ccc(F)cc1` (stereo not shown) [BMY-14802]: the “protective effects against NMDA-induced toxicity and seizures” value in test [9] was “in vivo protective effects against NMDA-induced toxicity and seizures”.
As for `c1ccc2c(c1)C1CC2C(N2CCCCC2)C1` (stereo not shown), the IC50 (as a rule, the concentration needed to halve the response being measured) in test [2] (read-out: Sigma 2 IC50, about 2 nM [^3 H]DTG with 200 nM (+)pentazocine, guinea pig brain membranes, pH 7.4, 30 minutes room temperature) was 5.29 nM. Further, the affinity in [4], expressed as Ki, was 0.13 nM.
As for `c1cc2c(cc1CCCCCN1CCCCC1)OCO2` [drawing 38], the IC50 in test [2] (read-out: Sigma 2 IC50) was 63.4 nM. For the same compound, in [10], the inhibition constant (Ki) (commonly a measure of affinity in units of concentration, obtained from inhibition or displacement) stood at 0.32 nM.
As for `OCCN1CCN(CCCN2c3ccccc3C=Cc3ccccc32)CC1` [opipramol], the “affinity for sigma sites” value in [7] is listed as “potent sigma receptor ligand”. Besides, the “biochemical effects on NMDA-type glutamate receptors” value in test [11] was “biochemical effects consistent with modulation of the NMDA-type of glutamate receptors”. Also, the protection against ischemia result in test [12] was “protect against ischemia in gerbils”.
On to `CN(CCCC=C(c1ccccc1)c1ccccc1)CCc1ccccc1`, for which the IC50 in test [2] (read-out: Sigma 2 IC50) came to 40.8 nM. Also, in test [10], the Ki turned out to be 0.9 nM.
With `CC(Cc1ccccc1)NCCCCc1ccccc1` (stereo not shown), the IC50 in test [2] was 47.5 nM. Also, affinity in test [10] was put at a Ki of 7.38 nM.
As for `CC1CCN(CCCCC(c2ccccc2)c2ccccc2)CC1`, the IC50 in test [2] (about 2 nM [^3 H]DTG with 200 nM (+)pentazocine, guinea pig brain membranes, pH 7.4, 30 minutes room temperature, read-out: Sigma 2 IC50) is 16.7 nM. Moreover, the Ki in test [4] came to 0.1 nM.
Take `c1ccc(Cc2cccc(CN3CCCCC3)c2)cc1`: the half-inhibitory concentration (IC50) in test [2] (read-out: Sigma 2 IC50) was determined as 98.2 nM. In addition, the inhibition constant Ki in [10] was found to be 5.44 nM.
With `O=[N+]([O-])c1ccc(CCCCCN2CCCCC2)cc1`, the IC50 in [2] (read-out: Sigma 2 IC50) was determined as 9.91 nM. For the same compound, the Ki in test [10] worked out at 0.16 nM.
Taken in the same sequence, the figures for `CCN(CC)CCCCC(c1ccccc1)c1ccccc1` were 51.2 nM and 1.42 nM.
For `CC1CCN(CCCCCc2ccccc2)CC1`, in that order: 7.1 nM and 0.08 nM.
As to `CN(CCCCC(O)c1cccc(C(F)(F)F)c1)CCc1ccccc1` (stereo not shown), the IC50 in test [2] (read-out: Sigma 2 IC50) stood at 3.02 nM. For the same compound, the affinity in test [10] corresponds to a Ki of 0.95 nM.
For `CN(CCCCC(=O)c1cccc(C(F)(F)F)c1)CCc1ccccc1`, in that order: 1.27 nM and 0.71 nM.
In the case of `CCN(CC)CCCCCc1ccccc1`, the concentration for half-maximal inhibition (IC50) in [2] (read-out: Sigma 2 IC50) is 88.5 nM. In addition, the Ki in [10] amounted to 6.01 nM.
Turning to `CCN(CC)CCOC(=O)C1(c2ccccc2)CCCC1` [caramiphen], the “protective effects against NMDA-induced toxicity and seizures” value in [9] is “in vivo protective effects against NMDA-induced toxicity and seizures”.
Take `c1ccc(CCNCCCCC(c2ccccc2)c2ccccc2)cc1`: in test [2] (read-out: Sigma 2 IC50), the IC50 was 100 nM. The compound further gave a Ki in [10] of 0.68 nM.
Taken in the same sequence, the figures for `c1ccc(CCCCCN2CCCCC2Cc2ccccc2)cc1` (stereo not shown) were 10.4 nM and 0.36 nM.
Taken in the same sequence, the figures for `CN1CCC(CCCCCc2ccccc2)CC1` were 97.3 nM and 0.6 nM.
Turning to `CN(CCCCCc1ccccc1)CCc1cccc(C(F)(F)F)c1`, in test [2] (read-out: Sigma 2 IC50), the IC50 is 14.4 nM. Moreover, the Ki in test [10] worked out at 1.74 nM.
On to `c1ccc(CCCCCN2CCCC2)cc1`, for which the IC50 is 69.7 nM in test [2] (read-out: Sigma 2 IC50) and 4.95 nM in test [3]. In test [10], this compound gave a Ki of 0.76 nM.
On to `c1ccc(CCCCCN2CCCCC2c2ccccc2)cc1` (stereo not shown), for which the half-inhibitory concentration (IC50) in test [2] (read-out: Sigma 2 IC50) amounted to 4.7 nM. Moreover, in [10], the Ki came to 0.16 nM.
Regarding `CC(Cc1ccccc1)NCCCCCc1ccccc1` (stereo not shown), in test [2], the IC50 stood at 10.9 nM. Moreover, in test [10], the affinity, expressed as Ki, was 0.54 nM.
